Laboratory results published in US8288423B2, “FXa inhibitors with cyclic amidines as P4 subunit, processes for their preparations, and pharmaceutical compositions and derivatives thereof” (Legochem Bioscience Ltd., priority 2007, dated 2012).

Legend:
Citrated plasma = assay: Measurement of PT (prothrombin time) in citrated plasma; type: biochemical; conditions: STA-Neoplastine, 37° C., unit not given (2×PT value)
Method: The effect of oxazolidinone derivatives with cyclic amidines represented by Chemical Formula (1) according to the invention on blood coagulation was compared by measuring PT (prothrombin time) and aPTT (activated Partial Thromboplastin Time). The procedure of measurement is described below. Citrated plasma was purchased from Daejeon-Chungnam Blood Institute (located at Daejeon, Korea). A compound solution (5 μL) according to the invention (in a various concentration gradient, 5% DMSO solution) was added to the plasma ([…]), and the reaction was carried out at 37° C. for 5 minutes. STA-Neoplastine (Diagnostica Stago) (100 μL) was then added thereto, and the duration for plasma coagulation was measured. The duration for plasma coagulation is determined as the point when the absorbance at 340 nm reaches 0.1.

plasma = assay: Measurement of aPTT (activated partial thromboplastin time) in plasma; type: biochemical; set-up: unit not given here; conditions: STA-PTT, CaCl2, 37° C., unit not given
Method: The effect of oxazolidinone derivatives with cyclic amidines represented by Chemical Formula (1) according to the invention on blood coagulation was compared by measuring PT (prothrombin time) and aPTT (activated Partial Thromboplastin Time). The procedure of measurement is described below. A solution (5 μL) of the oxazolidinone derivative with cyclic amidine group represented by Chemical Formula (1) according to the invention (in a various concentration gradient, 5% DMSO solution) was added to the plasma ([…]), and the reaction was carried out at 37° C. for 2 minutes. STA-PTT (Diagnostica Stago) (50 μL) was then added thereto. After the reaction at 37° C. for additional 5 minutes, 25 mM CaCl2 (50 μL) was added thereto, and the duration for plasma coagulation was measured. The duration for plasma coagulation was determined as the point when the absorbance at 340 nm reaches 0.1.

factor Xa = molecular target: T1, factor Xa (Homo sapiens, UniProt P00742); assay: Inhibiting activity of factor Xa inhibitor (chromogenic substrate S-2765); type: biochemical; conditions: calculated from IC50 by Equation 1, Km 125 μM; S-2765 substrate, pH 7.8, 37° C.; read-out: Ki (nM), factor Xa inhibition constant
T1 construct: purchased Enzyme Research Laboratories
Method: Relative rate of hydrolysis (as compared to control group without inhibition) was plotted versus logarithm of the concentration of the oxazolidinone derivative with a cyclic amidine represented by Chemical Formula (1) according to the invention, to obtain the concentration of the inhibitor for 50% decrease in the rate of hydrolysis of the substrate.
The inhibition constant can be obtained by spectrophotometry whereby the color development is determined as a function of time, after being reacted with a specific substrate which develops color upon hydrolysis caused by action of factor Xa.
For the inhibitor solution, the inhibitor compound according to the present invention was diluted with dimethylsulfoxide (DMSO) in 10 mM, and then further diluted with third-distilled water (finally 10% DMSO solution), and the solution (10 μL) was added to each well. […] The substrate solution (20 μL) thus prepared was added to each well.
Kinetic analysis of the reaction was performed by a kinetic plate reader (Molecular Devices, Spectramax 190) at 37° C. for 20 minutes.
Relative rate of hydrolysis (compared to control group without inhibition) versus logarithm of the oxazolidinone derivative with a cyclic amidine group (Chemical Formula I) was plotted to obtain the concentration of the inhibitor to decrease the rate of hydrolysis of the substrate by 50%. GraFit (version 5.0.12) program for statistical process purchased from Erithacus Software was employed.
When inhibition constant Ki is calculated, it can be calculated according to Equation (1).

thrombus formation = assay: % inhibition against thrombus formation, arteriovenous shunt model in white rats; type: in vivo, white rats (male Sprague Dawley); set-up: concentration or dose not given beside the values; conditions: orally administered 1 hour before opening of the shunt; 15 minutes circulation; versus control group
Method: 3) Determination of % Inhibition Against Thrombus Formation by Means of Arteriovenous Shunt Model ([…]) in White Rats Antithrombotic effect of the compounds according to the present invention was evaluated by using arteriovenous shunt model in white rats. The animals used were male Sprague Dawleys with the body weight of 200-250 g. For one day before the experiment, the animals were fasted. Five to six animals were used for each test group. The compound of Example was orally administered 1 hour before opening of the shunt. The rats were anesthetized by abdominal administration of Rompun (Bay HealthCare) and Chloral hydrate or urethane in an amount of 12 and 50 mg per kg of the body weight. Into the left carotid artery and right jugular vein of the white rat, a polyethylene(PE)-60 tubing filled with physiological saline was inserted and secured. Both ends of individual PE tubing were connected to a silicone tubing having a length of 5 cm in which a cotton thread have been incorporated diagonally, and the shunt was open to provide circulation for 15 minutes. The shunt was then compressed by using jaws, and the cotton thread was carefully removed and the thrombus generated was weighed. The % inhibition of thrombus formation was calculated by using the weight of thrombus obtained from white rats of the control group to which a solution of oral administration was administered.

T1 sequence (P00742 235-488 limits assumed): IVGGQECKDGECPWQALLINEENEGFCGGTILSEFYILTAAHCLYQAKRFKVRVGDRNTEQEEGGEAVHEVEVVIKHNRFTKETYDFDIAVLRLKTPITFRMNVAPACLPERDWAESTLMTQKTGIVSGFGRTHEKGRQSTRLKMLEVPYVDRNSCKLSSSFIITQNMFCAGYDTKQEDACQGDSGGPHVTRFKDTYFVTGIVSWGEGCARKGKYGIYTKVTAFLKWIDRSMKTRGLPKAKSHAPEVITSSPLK
T1 sequence (P00742 41-179 partner limits assumed): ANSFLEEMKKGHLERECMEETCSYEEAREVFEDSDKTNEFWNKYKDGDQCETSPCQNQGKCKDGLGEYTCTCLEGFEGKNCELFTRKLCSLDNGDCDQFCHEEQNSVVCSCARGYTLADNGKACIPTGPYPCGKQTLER

Ki (factor Xa) [nM] | SMILES | PT (Citrated plasma) | APTT (plasma) | % Inhibition (of thrombus formation) (thrombus formation) [%]
1.47 | O=C(NC[C@H]1CN(c2ccc(N3CCN=C3c3ccco3)cc2)C(=O)O1)c1ccc(Br)s1 [Compound 139] | 0.07 | 0.47 | 60
1.29 | O=C(NC[C@H]1CN(c2ccc(N3C=NCC3)cc2)C(=O)O1)c1ccc(Cl)s1 [Compound 115] | 0.34 | 2.61 | –
2.33 | O=C(NC[C@H]1CN(c2ccc(N3CCN=C3C3CCOC3)cc2)C(=O)O1)c1ccc(Cl)s1 (stereo partly shown) [Compound 125] | 0.05 | – | 42
1.81 | CC(C)=CC1=NCCN1c1ccc(N2C[C@H](CNC(=O)c3ccc(Cl)s3)OC2=O)cc1 [Compound 121] | 0.06 | – | 35
1.21 | O=C(NC[C@H]1CN(c2ccc(N3CCN=C3c3cccc(Cl)c3)cc2)C(=O)O1)c1ccc(Cl)s1 [Compound 133] | 0.26 | – | 44
13.1 | O=C(NC[C@H]1CN(c2ccc(C3=NCCCN3)cc2)C(=O)O1)c1ccc(Cl)s1 [Compound 106, 5-chlorothiophene-2-carboxylic acid {(S)-2-oxo-3-[4-(1,4,5,6-tetrahydropyrimidine-2-yl)-phenyl]-oxazolidin-5-ylmethyl}-amide] | 0.09 | 0.55 | 0
2.42 | CN1CCN=C1c1ccc(N2C[C@H](CNC(=O)c3ccc(Br)s3)OC2=O)cc1 [Compound 108, 5-bromothiophene-2-carboxylic acid {(S)-3-[4-(1-methyl-4,5-dihydro-1H-imidazol-2-yl)-phenyl]-2-oxo-oxazolidin-5-ylmethyl}-amide] | 0.03 | 0.15 | 30
4.67 | CCN1CCN=C1c1ccc(N2C[C@H](CNC(=O)c3ccc(Br)s3)OC2=O)cc1 [Compound 109, 5-bromothiophene-2-carboxylic acid {(S)-3-[4-(1-ethyl-4,5-dihydro-1H-imidazol-2-yl)-phenyl]-2-oxo-oxazolidin-5-ylmethyl}-amide] | – | – | 26
0.92 | Cc1ccc(C2=NCCN2c2ccc(N3C[C@H](CNC(=O)c4ccc(Cl)s4)OC3=O)cc2)cc1 [Compound 129] | 0.30 | – | 0
69.9 | O=C(NC[C@H]1CN(c2ccc(N3CCN=C3C3CCC3)cc2)C(=O)O1)c1ccc(Cl)s1 [Compound 118] | 0.58 | – | –
9.19 | CN1CCCN=C1c1ccc(N2C[C@H](CNC(=O)c3ccc(Cl)s3)OC2=O)cc1Cl [Compound 113, 5-chloro-thiophene-2-carboxylic acid {(S)-3-[3-chloro-4-(1-methyl-1,4,5,6-tetrahydropyrimidin-2-yl)-phenyl]-2-oxo-oxazolidin-5-ylmethyl}-amide] | 0.11 | 0.35 | 53
2.45 | CC1=NCCN1c1ccc(N2C[C@H](CNC(=O)c3ccc(Cl)s3)OC2=O)cc1 [Compound 114] | 0.03 | 0.12 | 41
4.4 | CCN1CCN=C1c1ccc(N2C[C@H](CNC(=O)c3ccc(Cl)s3)OC2=O)cc1F [Compound 110] | 0.03 | 0.19 | 38
4.01 | O=C(NC[C@H]1CN(c2ccc(N3CCN=C3c3ccc(C(F)(F)F)cc3)cc2)C(=O)O1)c1ccc(Cl)s1 [Compound 134] | 0.36 | – | 4
3.7 | CC(C)CC1=NCCN1c1ccc(N2C[C@H](CNC(=O)c3ccc(Cl)s3)OC2=O)cc1 [Compound 119] | 0.03 | – | 4
10.5 | CN1CCCN=C1c1ccc(N2C[C@H](CNC(=O)c3ccc(Cl)s3)OC2=O)cc1F [Compound 111, 5-chloro-thiophene-2-carboxylic acid {(S)-3-[3-fluoro-4-(1-methyl-1,4,5,6-tetrahydropyrimidin-2-yl)-phenyl]-2-oxo-oxazolidin-5-ylmethyl}-amide] | 0.03 | 0.28 | 49
31.5 | COC(=O)C1(C2=NCCN2c2ccc(N3C[C@H](CNC(=O)c4ccc(Cl)s4)OC3=O)cc2)CC1 [Compound 135] | 0.15 | 1.34 | 62
8.6 | Cc1csc(C2=NCCN2c2ccc(N3C[C@H](CNC(=O)c4ccc(Cl)s4)OC3=O)cc2)n1 [Compound 130] | 0.94 | – | 15
1.09 | O=C(NC[C@H]1CN(c2ccc(N3CCN=C3c3ccc(Cl)s3)cc2)C(=O)O1)c1ccc(Cl)s1 [Compound 132] | 0.29 | 0.88 | 60
2.52 | CCC1=NCCCN1c1ccc(N2C[C@H](CNC(=O)c3ccc(Cl)s3)OC2=O)cc1 [Compound 142] | 0.04 | 0.17 | 47
27.9 | C=C(C)C1=NCCN1c1ccc(N2C[C@H](CNC(=O)c3ccc(Cl)s3)OC2=O)cc1 [Compound 120] | 0.31 | – | 37
2.38 | CC1=NCCN1c1ccc(N2C[C@H](CNC(=O)c3ccc(Br)s3)OC2=O)cc1 [Compound 138] | 0.04 | 0.16 | 27
12.8 | O=C(NC[C@H]1CN(c2ccc(N3CCN=C3c3ccncc3)cc2)C(=O)O1)c1ccc(Cl)s1 [Compound 126] | 0.16 | – | 22
2.63 | O=C(NC[C@H]1CN(c2ccc(N3CCN=C3c3ccc(Cl)s3)cc2)C(=O)O1)c1ccc(Br)s1 [Compound 140] | 0.24 | – | 40
6.14 | O=C(NC[C@H]1CN(c2ccc(N3CCN=C3c3cccnc3)cc2)C(=O)O1)c1ccc(Cl)s1 [Compound 127] | 0.12 | – | 27
0.69 | Cc1ccc(C2=NCCN2c2ccc(N3C[C@H](CNC(=O)c4ccc(Cl)s4)OC3=O)cc2)s1 [Compound 131] | 0.08 | 0.39 | 0
13.9 | O=C(NC[C@H]1CN(c2ccc(N3CCN=C3c3ccccn3)cc2)C(=O)O1)c1ccc(Cl)s1 [Compound 128] | 0.95 | – | 22
1.78 | COC(=O)C(C)(C)C1=NCCN1c1ccc(N2C[C@H](CNC(=O)c3ccc(Cl)s3)OC2=O)cc1 [Compound 136] | 0.10 | – | 31
